From BindingDB's records for doi:10.1016/s0960-894x(99)00064-5 (Institut De Chimie Organique De L'Universit&#233, 1999)

Key:
[1] = target: Beta-galactosidase (Canavalia ensiformis); assay: Inhibition constant against beta-galactosidase enzyme of jack bean was reported
[2] = target: Beta-galactosidase (Canavalia ensiformis); assay: as above; remark: listed apart in the source

Ki [1]: 7.5 µM
IC50 [2]: 9.4 µM
SMILES: CC(=O)N[C@H]1C(O)O[C@H](C(O)CO)[C@@H]1C[C@H]1O[C@H](CO)[C@@H](O)[C@H](O)[C@@H]1O (some centres not stated) [N-[2,5-Dihydroxy-6-hydroxymethyl-4-(3,4,5-trihydroxy-6-hydroxymethyl-tetrahydro-pyran-2-ylmethyl)-tetrahydro-pyran-3-yl]-acetamide and N-[5-(1,2-Dihydroxy-ethyl)-2-hydroxy-4-(3,4,5-trihydroxy-6-hydroxymethyl-tetrahydro-pyran-2-ylmethyl)-tetrahydro-furan-3-yl]-acetamide]
